target: T1, 11βHSD1 (Homo sapiens, UniProt P28845); assay: Determination of 11βHSD1 inhibitory activity (microsome fraction, cortisone to cortisole, competitive ELISA); type: biochemical; conditions: microsome fraction of Reference Example 2a; 500 nM cortisone, 400 μM NADPH substrate solution; room temperature 60 min
T1 construct: made in house; host or cells: Sf-21 insect cells infected with recombinant baculovirus BAC-HHSD1 (pFASTBAC1-derived pFB-hHSD1); microsome fraction
Method: The enzyme reaction was performed in a polypropylene 96-well plate (Corning). The microsome fraction obtained in Reference Example 2a was diluted with a buffer (30 mM Tris-HCl, 1 mM EDTA, 0.1% BSA, pH 7.2) to a concentration of 100 μg/ml. A solution (2.5 μl) of the test compound in dimethyl sulfoxide was added to the obtained diluted solution (22.5 μl) and the mixture was incubated at room temperature for 5 min. A substrate solution (500 nM cortisone, 400 μM NADPH) (25 μl) was added to the obtained suspension, allowed to react at room temperature for 60 min and the reaction was quenched by the addition of 2 mM 18-β-glycyrrhetinic acid (Sigma Ltd.) solution (5 μl). The produced cortisole was quantified by the following competitive ELISA.
Anti-mouse IgG antibody (Chemicon) was suspended in 100 mM sodium phosphate buffer (pH 9.0) to a concentration of 5 μg/ml. The obtained suspension (100 μl) was added to a 96-well black plate (Maxisorp, Nunc), and incubated overnight at 4° C. to immobilize a first antibody. The plate was washed with PBS containing 0.05% Tween20 (Bio-Rad), 30% block ace (Yukijirushi) ([…]) diluted with PBS was added. After blocking at room temperature for 1 hr or more, the plate was washed with PBS containing 0.05% Tween20. Anti-cortisole antibody (assay design) (100 μl) diluted 4-fold with a buffer (30 mM Tris-HCl, 1 mM EDTA, pH 7.2) was added to the plate, and the plate was incubated at room temperature for 90 min. The plate was washed 4 times with PBS containing 0.05% Tween20, the enzyme reaction mixture (25 μl) and alkaline phosphatase conjugated cortisole (assay design) (25 μl) were added, and the plate was incubated at room temperature for 120 min. The plate was washed 4 times with PBS containing 0.05% Tween20, a luminescence substrate for alkaline phosphatase, Immun star (Enhancer plus, Bio-Rad) (50 μl) was added. The plate was incubated at room temperature for 10 min and the level of luminescence was measured by Arvo malfi label counter (Wallac). The concentration (IC50 value) of the test compound necessary for inhibiting the 11βHSD1 activity by 50% was calculated by PRISM2.01 (Graphpad Software).

T1 sequence (P28845 whole entry): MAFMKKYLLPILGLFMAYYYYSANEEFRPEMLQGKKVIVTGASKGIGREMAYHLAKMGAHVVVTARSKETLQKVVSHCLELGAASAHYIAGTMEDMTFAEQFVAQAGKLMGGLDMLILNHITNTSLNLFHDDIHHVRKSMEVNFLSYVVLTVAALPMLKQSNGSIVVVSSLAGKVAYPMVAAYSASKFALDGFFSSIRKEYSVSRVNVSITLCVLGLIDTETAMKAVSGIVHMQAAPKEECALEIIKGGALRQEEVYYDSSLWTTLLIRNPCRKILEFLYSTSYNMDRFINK

Row | Compound | IC50
1 | CC1(O)CCC(N2CCC(Cc3c(Cl)cccc3Cl)C2=O)CC1 (single isomer, unassigned) [Example 38A, 3-(2,6-dichlorobenzyl)-1-(4-hydroxy-4-methylcyclohexyl)pyrrolidin-2-one] | 26 nM
2 | COc1ccccc1CC1CCN(C2CCc3ccccc32)C1=O (single isomer, unassigned) [Example 66A, 1-(2,3-dihydro-1H-inden-1-yl)-3-(2-methoxybenzyl)pyrrolidin-2-one] | 56 nM
3 | CC1(O)CCC(N2CCC(Cc3ccc(Cl)cc3Cl)C2=O)CC1 (single isomer, unassigned) [Example 412A, 3-(2,4-dichlorobenzyl)-1-(4-hydroxy-4-methylcyclohexyl)pyrrolidin-2-one] | 430 nM
4 | CC1(O)CCC(N2CCC(Cc3ccc(Cl)cc3Cl)C2=O)CC1 (single isomer, unassigned) [Example 413A, 3-(2,4-dichlorobenzyl)-1-(4-hydroxy-4-methylcyclohexyl)pyrrolidin-2-one] | 29 nM
5 | CC1(O)CCC(N2CCC(Cc3ccc(OCC(=O)NCc4ccc(C(F)(F)F)cc4)cc3Cl)C2=O)CC1 (single isomer, unassigned) [Example 602A, 2-(3-chloro-4-{[1-(4-hydroxy-4-methylcyclohexyl)-2-oxopyrrolidin-3-yl]methyl}phenoxy)-N-[4-(trifluoromethyl)benzyl]acetamide] | 26 nM
6 | CC1(O)CCC(N2CCC(Cc3ccc(OCC(=O)NCc4ccc(C(F)(F)F)cc4)cc3Cl)C2=O)CC1 (single isomer, unassigned) [Example 603A, 2-(3-chloro-4-{[1-(4-hydroxy-4-methylcyclohexyl)-2-oxopyrrolidin-3-yl]methyl}phenoxy)-N-[4-(trifluoromethyl)benzyl]acetamide] | 98 nM
7 | Cc1ccccc1CN1CCCN(Cc2c(Cl)cccc2Cl)C1=O [Example 2D, 1-(2,6-dichlorobenzyl)-3-(2-methylbenzyl)tetrahydropyrimidin-2(1H)-one] | 130 nM
8 | Cc1ccccc1CN1CCCC(Cc2c(Cl)cccc2Cl)C1=O (stereo not shown) [Example 5C, 3-(2,6-dichlorobenzyl)-1-(2-methylbenzyl)piperidin-2-one] | 110 nM
9 | O=C1C(Cc2c(Cl)cccc2Cl)CCN1C1CCCCC1 (stereo not shown) [Example 9A, 1-cyclohexyl-3-(2,6-dichlorobenzyl)pyrrolidin-2-one] | 7.9 nM
10 | Cc1ccccc1CN1C(=O)N(Cc2c(Cl)cccc2Cl)CC1(C)O (stereo not shown) [Example 32B, 1-(2,6-dichlorobenzyl)-4-hydroxy-4-methyl-3-(2-methylbenzyl)imidazolidin-2-one] | 53 nM
11 | CN(Cc1c(Cl)cccc1Cl)C1CCN(C2CCCCC2)C1=O (stereo not shown) [Example 94A, 1-cyclohexyl-3-[N-(2,6-dichlorobenzyl)N-methylamino]pyrrolidin-2-one] | 85 nM
12 | O=C(Nc1ccc(CO)cc1)Nc1ccc(CC2CCN(C3C4CC5CC3CC(O)(C5)C4)C2=O)c(Cl)c1 (stereo not shown) [Example 468A, N-(3-chloro-4-{[1-(5-hydroxy-2-adamantyl)-2-oxopyrrolidin-3-yl]methyl}phenyl)-N′-[4-(hydroxymethyl)phenyl]urea] | 19 nM
13 | CS(=O)(=O)Nc1cccc(-c2ccc(CC3CCN(C4C5CC6CC4CC(O)(C6)C5)C3=O)c(Cl)c2)c1 (stereo not shown) [Example 470A, N-(3′-chloro-4′-{[1-(5-hydroxy-2-adamantyl)-2-oxopyrrolidin-3-yl]methyl}biphenyl-3-yl)methanesulfonamide] | 37 nM
14 | O=C1N(Cc2ccc(C(F)(F)F)cc2)CCN1c1ccc(CC2CCN(C3C4CC5CC3CC(O)(C5)C4)C2=O)c(Cl)c1 (stereo not shown) [Example 510A, 1-(3-chloro-4-{[1-(5-hydroxy-2-adamantyl)-2-oxopyrrolidin-3-yl]methyl}phenyl)-3-[4-(trifluoromethyl)benzyl]imidazolidin-2-one] | 9.9 nM
15 | CC1(O)CCC(N2CCC(Cc3ccc(OCc4nc(-c5ccc(F)cc5)no4)cc3Cl)C2=O)CC1 (stereo not shown) [Example 619A, 3-(2-chloro-4-{[3-(4-fluorophenyl)-1,2,4-oxadiazol-5-yl]methoxy}benzyl)-1-(4-hydroxy-4-methylcyclohexyl)pyrrolidin-2-one] | 46 nM
16 | CC1(O)CCC(N2CCC(Cc3ccc(-c4cccc(CO)c4)cc3Cl)C2=O)CC1 (stereo not shown) [Example 654A, 3-{[3-chloro-3′-(hydroxymethyl)biphenyl-4-yl]methyl}-1-(4-hydroxy-4-methylcyclohexyl)pyrrolidin-2-one] | 150 nM

Source: patent US20090264650A1, “Prophylactic/Therapeutic Agent for Diabetes” (priority 2005, published 2009)
